Test system: ML resistant Cooperia strains
Conditions: doses ¼ to ⅓rd lower than the standard label dose (7.5 mg/kg)
Protocol: Individual faecal samples (for individual egg count and group larval culture) were collected as per protocol at 7 days intervals at Days 7, 14, 21, 28, 35, 42 and 49. […] Weighing was performed at the beginning, middle, and end of 49 day trial.

SMILES: c1ccc([C@H]2CN3CCSC3=N2)cc1 [levamisole]
- Control of ML resistant Cooperia strains: 100%

Reference: patent US20140194374A1, “Anthelmintic Formulations and Treatments” (VIRBAC, priority 2011, published 2014)
